In US8785457B2 (Cellzome Limited, priority 2009, dated 2014) one finds IC50 and PI3Ka data, which are given here for 20 molecules.

For assay [1], the system named is S6RP serine-240/244 phosphorylation. The assay can be described thus: In vitro Phospho-S6 cellular assay (pS6RP S240/244) in HEK293T/17 cells. The assay is classed as cell-based. As to conditions: Homo sapiens, 2 hours, read-out: pS6 IC50. The method, boiled down: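 HEK293T/17 cells were seeded at 40,000 (pS6RP) or 80,000 (pAkt) cells/well in DMEM with 2% FCS. They were exposed to 8 compound concentrations (0.1% DMSO) for 2 h at 37 °C and then lysed. Phosphoprotein was quantified by MesoScale electrochemiluminescence sandwich immunoassay, and the sigmoidal variable-slope dose-response was fitted.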

The target of assay [2] is T1, PI3Kalpha (PI3Ka) (Homo sapiens, UniProt P42336).
T1 construct: endogenous in cells; host or cells: cell lysate
T1 sequence (P42336 whole entry): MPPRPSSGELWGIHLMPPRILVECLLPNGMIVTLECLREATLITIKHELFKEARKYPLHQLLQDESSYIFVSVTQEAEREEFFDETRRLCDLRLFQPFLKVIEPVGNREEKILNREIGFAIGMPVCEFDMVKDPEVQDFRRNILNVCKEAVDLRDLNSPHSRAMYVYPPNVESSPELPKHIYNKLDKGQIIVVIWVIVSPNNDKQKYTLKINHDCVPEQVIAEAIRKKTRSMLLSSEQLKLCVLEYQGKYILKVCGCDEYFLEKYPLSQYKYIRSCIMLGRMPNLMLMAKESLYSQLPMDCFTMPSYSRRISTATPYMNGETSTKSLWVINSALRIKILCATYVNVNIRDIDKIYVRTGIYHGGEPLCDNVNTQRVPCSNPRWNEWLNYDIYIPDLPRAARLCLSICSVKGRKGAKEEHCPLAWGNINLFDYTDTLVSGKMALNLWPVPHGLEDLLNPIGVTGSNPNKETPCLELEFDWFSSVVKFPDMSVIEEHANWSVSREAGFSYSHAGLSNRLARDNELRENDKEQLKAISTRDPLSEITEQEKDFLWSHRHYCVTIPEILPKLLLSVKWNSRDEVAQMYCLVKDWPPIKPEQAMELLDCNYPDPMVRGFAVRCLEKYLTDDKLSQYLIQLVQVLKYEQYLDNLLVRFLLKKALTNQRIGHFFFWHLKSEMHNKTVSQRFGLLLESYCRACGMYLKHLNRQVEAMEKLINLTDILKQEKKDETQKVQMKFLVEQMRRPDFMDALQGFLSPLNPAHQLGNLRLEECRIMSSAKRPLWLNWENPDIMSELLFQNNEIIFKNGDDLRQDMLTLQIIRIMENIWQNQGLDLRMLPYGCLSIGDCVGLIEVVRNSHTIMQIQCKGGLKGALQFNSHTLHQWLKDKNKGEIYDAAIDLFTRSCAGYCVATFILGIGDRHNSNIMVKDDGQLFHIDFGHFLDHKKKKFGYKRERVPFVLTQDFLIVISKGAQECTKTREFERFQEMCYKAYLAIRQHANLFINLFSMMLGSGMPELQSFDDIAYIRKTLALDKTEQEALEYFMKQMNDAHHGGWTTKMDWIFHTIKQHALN
T1 sequence (P27986 whole entry partner): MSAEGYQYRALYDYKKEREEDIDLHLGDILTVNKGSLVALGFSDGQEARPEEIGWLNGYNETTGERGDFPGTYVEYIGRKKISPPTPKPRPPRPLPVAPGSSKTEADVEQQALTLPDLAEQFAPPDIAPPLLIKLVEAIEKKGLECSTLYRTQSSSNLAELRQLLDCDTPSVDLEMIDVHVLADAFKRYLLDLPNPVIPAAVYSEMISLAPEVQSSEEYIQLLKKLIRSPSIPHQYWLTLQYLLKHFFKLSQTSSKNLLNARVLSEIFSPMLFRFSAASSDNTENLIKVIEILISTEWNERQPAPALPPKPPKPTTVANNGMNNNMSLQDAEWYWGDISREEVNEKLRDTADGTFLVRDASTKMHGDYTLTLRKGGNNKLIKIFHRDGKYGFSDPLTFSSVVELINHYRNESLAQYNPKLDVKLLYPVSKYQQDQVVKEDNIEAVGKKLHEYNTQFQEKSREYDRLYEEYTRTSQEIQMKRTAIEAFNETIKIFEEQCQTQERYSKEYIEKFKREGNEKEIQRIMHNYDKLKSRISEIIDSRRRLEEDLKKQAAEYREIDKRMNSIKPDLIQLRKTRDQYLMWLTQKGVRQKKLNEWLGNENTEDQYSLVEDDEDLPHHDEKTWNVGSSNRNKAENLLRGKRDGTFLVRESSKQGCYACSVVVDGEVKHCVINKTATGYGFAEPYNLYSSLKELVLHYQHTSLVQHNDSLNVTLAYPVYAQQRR
The assay can be described thus: kinobeads assay, PI3Kalpha. The assay is classed as binding. As to conditions: Further Kinobeads Data; for IC50: read-out: PI3Ka. The method, boiled down:
(§1)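 IC50 values derive from per-kinase dose-response curves in a lysate-based competition binding format. Kinases retained on phenylmorpholin-chromen beads in the presence of compound were eluted and detected by multiplexed immunodetection.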

Assay [3] has as its target T2, mTOR (Homo sapiens, UniProt P42345).
T2 construct: endogenous in cells; host or cells: Jurkat, clone E6-1 (ATCC TIB-152) cell lysate
In words: mTOR kinobeads assay (competitive binding in Jurkat cell lysate, immunodetection). The following applies: Further Kinobeads Data; read-out: mTor. The method, boiled down:
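IC50 derived from dose-response curves of mTOR captured on immobilized phenylmorpholin-chromen beads, detected by antibody dot blot with infrared fluorescence.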

The target in assay [4] is T3, PI3 Kgamma (PI3 Kg) (Homo sapiens, UniProt P48736).
T3 construct: endogenous in cells; host or cells: cell lysate
T3 sequence (P48736 whole entry): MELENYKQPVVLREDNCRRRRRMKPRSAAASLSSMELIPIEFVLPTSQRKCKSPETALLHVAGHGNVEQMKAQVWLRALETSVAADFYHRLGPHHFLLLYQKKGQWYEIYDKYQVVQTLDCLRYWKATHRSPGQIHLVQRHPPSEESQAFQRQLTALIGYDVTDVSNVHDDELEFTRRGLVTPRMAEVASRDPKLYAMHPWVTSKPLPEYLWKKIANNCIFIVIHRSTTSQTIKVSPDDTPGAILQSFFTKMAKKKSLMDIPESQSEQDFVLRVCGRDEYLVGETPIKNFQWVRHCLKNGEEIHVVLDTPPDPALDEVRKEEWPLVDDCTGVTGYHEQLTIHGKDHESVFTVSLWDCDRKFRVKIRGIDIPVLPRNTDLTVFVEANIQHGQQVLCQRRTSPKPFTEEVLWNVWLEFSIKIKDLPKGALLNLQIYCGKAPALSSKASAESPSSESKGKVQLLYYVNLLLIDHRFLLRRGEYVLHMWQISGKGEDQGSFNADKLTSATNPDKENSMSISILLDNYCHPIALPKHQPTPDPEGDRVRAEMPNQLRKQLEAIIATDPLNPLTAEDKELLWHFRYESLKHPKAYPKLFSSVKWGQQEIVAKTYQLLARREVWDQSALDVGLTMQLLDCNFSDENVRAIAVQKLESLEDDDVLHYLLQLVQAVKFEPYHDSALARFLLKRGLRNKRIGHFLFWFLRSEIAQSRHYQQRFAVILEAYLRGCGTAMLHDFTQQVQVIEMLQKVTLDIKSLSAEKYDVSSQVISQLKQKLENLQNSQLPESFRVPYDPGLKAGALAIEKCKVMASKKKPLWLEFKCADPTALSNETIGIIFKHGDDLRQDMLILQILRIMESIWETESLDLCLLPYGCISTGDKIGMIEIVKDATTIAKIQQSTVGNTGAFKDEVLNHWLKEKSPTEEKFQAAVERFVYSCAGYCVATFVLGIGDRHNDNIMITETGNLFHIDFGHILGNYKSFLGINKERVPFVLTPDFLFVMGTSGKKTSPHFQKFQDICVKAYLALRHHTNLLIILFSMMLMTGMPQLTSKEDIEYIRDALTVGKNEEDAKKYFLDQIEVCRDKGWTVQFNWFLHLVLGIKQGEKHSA
The assay can be described thus: kinobeads assay, PI3Kgamma. It counts as binding. As to conditions: Further Kinobeads Data; read-out: PI3Kg. The method, boiled down: as §1

Bounds are passed on as bounds.

Regarding `CCNC(=O)Nc1ccc(-c2nc3c(c(N4CCOCC4)n2)CN(C(=O)OC)C3)c(F)c1` [Example 162, methyl 2-(4-(3-ethylureido)-2-fluorophenyl)-4-morpholino-5H-pyrrolo[3,4-d]pyrimidine-6(7H)-carboxylate], the IC50 is 114 nM in assay [1], 1 to 10 µM in assay [2], under 100 nM in assay [3] and over 10 µM in assay [4].

In the case of `C[C@H]1COCCN1c1nc(-c2ccc(NC(=O)NC3CC3)cc2F)nc2c1CCNC2` [Example 163, (S)-1-cyclopropyl-3-(3-fluoro-4-(4-(3-methylmorpholino)-5,6,7,8-tetrahydropyrido[3,4-d]pyrimidin-2-yl)phenyl)urea], the IC50 in assay [1] is 405 nM; in assay [3], under 100 nM; in assay [4], over 10 µM. The PI3Ka result in assay [2] is reported as “D (D >10 μM)”.

Regarding `CCNC(=O)Nc1ccc(-c2nc3c(c(N4CCOC[C@@H]4C)n2)CCNC3)c(F)c1` [Example 164, (S)-1-ethyl-3-(3-fluoro-4-(4-(3-methylmorpholino)-5,6,7,8-tetrahydropyrido[3,4-d]pyrimidin-2-yl)phenyl)urea], the IC50 in assay [1] was 510 nM; in assay [3], under 100 nM; in assay [4], over 10 µM. Besides, the PI3Ka result in assay [2] is “D (D >10 μM)”.

Consider `C[C@H]1COCCN1c1nc(-c2ccc(NC(=O)NC3CC3)cc2F)nc2c1CCN(C(=O)N(C)C)C2` [Example 165, (S)-2-(4-(3-cyclopropylureido)-2-fluorophenyl)-N,N-dimethyl-4-(3-methylmorpholino)-5,6-dihydropyrido[3,4-d]pyrimidine-7(8H)-carboxamide], for which the IC50 in assay [1] was 45 nM; in assay [3], under 100 nM; in assay [4], over 10 µM. Further, the PI3Ka entry in assay [2] is recorded as “D (D >10 μM)”.

`CCOC(=O)N1Cc2nc(-c3ccc(NC(=O)NCCO)cc3F)nc(N3CCOC[C@@H]3C)c2C1` [Example 167, (S)-Ethyl 2-(2-fluoro-4-(3-(2-hydroxyethyl)ureido)phenyl)-4-(3-methylmorpholino)-5H-pyrrolo[3,4-d]pyrimidine-6(7H)-carboxylate]: the IC50 in assay [1] was 615 nM; in assay [3] it was under 100 nM; in assay [4], over 10 µM. Further, the PI3Ka result in assay [2] is “D (D >10 μM)”.

`CCOC(=O)N1Cc2nc(-c3ccc(NC(=O)NCCF)cc3F)nc(N3CCOC[C@@H]3C)c2C1` [Example 168, (S)-ethyl 2-(2-fluoro-4-(3-(2-fluoroethyl)ureido)phenyl)-4-(3-methylmorpholino)-5H-pyrrolo[3,4-d]pyrimidine-6(7H)-carboxylate]: the IC50 is 97 nM in assay [1], 1 to 10 µM in assay [2], under 100 nM in assay [3] and over 10 µM in assay [4].

On to `CCOC(=O)N1Cc2nc(-c3ccc(NC(=O)NCCF)cc3F)nc(N3CCOCC3)c2C1` [Example 170, ethyl 2-(2-fluoro-4-(3-(2-fluoroethyl)ureido)phenyl)-4-morpholino-5H-pyrrolo[3,4-d]pyrimidine-6(7H)-carboxylate], for which the IC50 was 105 nM in assay [1], under 100 nM in assay [3] and over 10 µM in assay [4]. For the same molecule, the PI3Ka result in assay [2] is listed as “D (D >10 μM)”.

As for `CCOC(=O)N1Cc2nc(-c3ccc(NC(=O)NCCO)cc3F)nc(N3CCOCC3)c2C1` [Example 171, ethyl 2-(2-fluoro-4-(3-(2-hydroxyethyl)ureido)phenyl)-4-morpholino-5H-pyrrolo[3,4-d]pyrimidine-6(7H)-carboxylate], the values for the IC50 in assay [1], in assay [3] and in assay [4] were 983 nM, under 100 nM and over 10 µM, respectively. Further, in assay [2], the PI3Ka entry was “D (D >10 μM)”.

In the case of `CC(C)N1Cc2nc(-c3ccc(NC(=O)NC4CC4)cc3F)nc(N3CCOC[C@@H]3C)c2C1` [Example 172, (S)-1-cyclopropyl-3-(3-fluoro-4-(6-isopropyl-4-(3-methylmorpholino)-6,7-dihydro-5H-pyrrolo[3,4-d]pyrimidin-2-yl)phenyl)urea], the IC50 is 187 nM in assay [1], 1 to 10 µM in assay [2], under 100 nM in assay [3] and 1 to 10 µM in assay [4].

For the molecule `COC(=O)N1Cc2nc(-c3ccc(NC(=O)NC4CC4)cc3F)nc(N3CCOCC3)c2C1` [Example 173, Methyl 2-(4-(3-cyclopropylureido)-2-fluorophenyl)-4-morpholino-5H-pyrrolo[3,4-d]pyrimidine-6(7H)-carboxylate], the IC50 is 172 nM in assay [1], under 100 nM in assay [3] and over 10 µM in assay [4]. Further, the PI3Ka entry in assay [2] was “D (D >10 μM)”.

Consider `CC(C)C(=O)N1Cc2nc(-c3ccc(NC(=O)NC4CC4)cc3F)nc(N3CCOC[C@@H]3C)c2C1` [Example 174, (S)-1-cyclopropyl-3-(3-fluoro-4-(6-isobutyryl-4-(3-methylmorpholino)-6,7-dihydro-5H-pyrrolo[3,4-d]pyrimidin-2-yl)phenyl)urea], for which the IC50 is 545 nM in assay [1], under 100 nM in assay [3] and over 10 µM in assay [4]. The PI3Ka entry in assay [2] is listed as “D (D >10 μM)”.

For `CCNC(=O)Nc1ccc(-c2nc3c(c(N4CCOC[C@@H]4C)n2)CCN(C(=O)N(C)C)C3)c(F)c1` [Example 176, (S)-2-(4-(3-ethylureido)-2-fluorophenyl)-N,N-dimethyl-4-(3-methylmorpholino)-5,6-dihydropyrido[3,4-d]pyrimidine-7(8H)-carboxamide], the IC50 in assay [1] was 76 nM; in assay [2], 1 to 10 µM; in assay [3], under 100 nM; in assay [4], 1 to 10 µM.

As to `C[C@H]1COCCN1c1nc(-c2ccc(NC(=O)NC3CC3)cc2F)nc2c1CN(S(C)(=O)=O)C2` [Example 177, (S)-1-cyclopropyl-3-(3-fluoro-4-(4-(3-methylmorpholino)-6-(methylsulfonyl)-6,7-dihydro-5H-pyrrolo[3,4-d]pyrimidin-2-yl)phenyl)urea], the values for the IC50 in assay [1], in assay [3] and in assay [4] were 410 nM, under 100 nM and over 10 µM, respectively. The PI3Ka result in assay [2] was “D (D >10 μM)”.

Regarding `C[C@H]1COCCN1c1nc(-c2ccc(NC(=O)NC3CC3)cc2F)nc2c1CN(C(=O)N(C)C)C2` [Example 178, (S)-2-(4-(3-cyclopropylureido)-2-fluorophenyl)-N,N-dimethyl-4-(3-methylmorpholino)-5H-pyrrolo[3,4-d]pyrimidine-6(7H)-carboxamide], the IC50 in assay [1] was 163 nM; in assay [3] it was 100 to 1000 nM; in assay [4], over 10 µM. In addition, in assay [2], the PI3Ka result is listed as “D (D >10 μM)”.

On to `CCOC(=O)N1Cc2nc(-c3ccc(NC(=O)NC4CC4)cc3F)nc(N3CCOC[C@H]3C)c2C1` [Example 179, (R)-ethyl 2-(4-(3-cyclopropylureido)-2-fluorophenyl)-4-(3-methylmorpholino)-5H-pyrrolo[3,4-d]pyrimidine-6(7H)-carboxylate], for which the values for the IC50 in assay [1], in assay [3] and in assay [4] were 63 nM, under 100 nM and over 10 µM, respectively. Further, the PI3Ka entry in assay [2] is recorded as “D (D >10 μM)”.

With `COC(=O)N1Cc2nc(-c3ccc(NC(=O)NC4CC4)cc3F)nc(N3CCOC[C@H]3C)c2C1` [Example 180, (R)-methyl 2-(4-(3-cyclopropylureido)-2-fluorophenyl)-4-(3-methylmorpholino)-5H-pyrrolo[3,4-d]pyrimidine-6(7H)-carboxylate], the IC50 is 58 nM in assay [1], under 100 nM in assay [3] and over 10 µM in assay [4]. Besides, in assay [2], the PI3Ka result is listed as “D (D >10 μM)”.

Take `COC(=O)N1Cc2nc(-c3ccc(NC(=O)NCCO)cc3F)nc(N3CCOC[C@@H]3C)c2C1` [Example 181, (S)-methyl 2-(2-fluoro-4-(3-(2-hydroxyethyl)ureido)phenyl)-4-(3-methylmorpholino)-5H-pyrrolo[3,4-d]pyrimidine-6(7H)-carboxylate]: the IC50 in assay [1] is 962 nM; in assay [3] it was under 100 nM; in assay [4] it was over 10 µM. In addition, the PI3Ka entry in assay [2] is recorded as “D (D >10 μM)”.

For `COC(=O)N1Cc2nc(-c3ccc(NC(=O)NCCF)cc3F)nc(N3CCOC[C@@H]3C)c2C1` [Example 183, (S)-methyl 2-(2-fluoro-4-(3-(2-fluoroethyl)ureido)phenyl)-4-(3-methylmorpholino)-5H-pyrrolo[3,4-d]pyrimidine-6(7H)-carboxylate], the values for the IC50 in assay [1], in assay [3] and in assay [4] were 60 nM, 100 to 1000 nM and over 10 µM, respectively. Also, the PI3Ka result in assay [2] is recorded as “D (D >10 μM)”.

For the molecule `CC(C)N1Cc2nc(-c3ccc(NC(=O)NCCF)cc3F)nc(N3CCOCC3)c2C1` [Example 185, 1-(3-fluoro-4-(6-isopropyl-4-morpholino-6,7-dihyro-5H-pyrrolo[3,4-d]pyrimidin-2-yl)phenyl)-3-(2-fluoroethyl)urea], the IC50 was 360 nM in assay [1], 1 to 10 µM in assay [2], under 100 nM in assay [3] and over 10 µM in assay [4].

Regarding `CC(C)N1Cc2nc(-c3ccc(NC(=O)NCCF)cc3F)nc(N3CCOC[C@@H]3C)c2C1` [Example 186, (S)-1-(3-fluoro-4-(6-isopropyl-4-(3-methylmorpholino)-6,7-dihydro-5H-pyrrolo[3,4-d]pyrimidin-2-yl)phenyl)-3-(2-fluoroethyl)urea], the results for the IC50 in assay [1], in assay [3] and in assay [4] were 197 nM, under 100 nM and over 10 µM, respectively. The PI3Ka result in assay [2] is listed as “D (D >10 μM)”.
